From patent publication US11242537B2, “Method for improving sensitivity of plant to gibberellin inhibitor and use thereof” (CHINA AGRICULTURAL UNIVERSITY, priority 2017, dated 2022)

Key:
[1] = test system: ZmCPS::ga1-5; experiment: Effect of DPC on plant height (step 4.1), ZmCPS::ga1-5; type: in vivo, Arabidopsis thaliana; conditions: for Plant height: 12 days; for Plant height reduction rate: relative to 0 mg/L
Description: (§1) In the following examples, the growth conditions of Arabidopsis thaliana are: culturing in a growth chamber with a photoperiod of 16 h light/8 h dark, a light intensity of 60 μmol/m^2/s, a humidity of 60%-70%, and a temperature of 22° C.
(§2) The experiment was repeated three times, and the specific steps of each repeated experiment were as follows:
(§3) Thirty homozygous line plants of the HRP::ga1-1 of step 2 were randomly selected and randomly divided into three groups, ten plants in each group. On the 33rd day of sowing (the day of sowing was recorded as the first day of sowing), the plants of these three groups were treated as follows, respectively one group was sprayed with water (i.e., 0 mg/L DPC solution) and cultured for 12 days to obtain untreated HRP::ga1-1; one group was sprayed with 30 mg/L DPC solution and cultured for 12 days to obtain 30 mg/L DPC-treated HRP::ga1-1; the last group was sprayed with 500 mg/L aqueous DPC solution and cultured for 12 days to obtain 500 mg/L DPC-treated HRP::ga1-1.
(§4) According to the above method, the homozygous line plants of the HRP::ga1-1 were replaced with the homozygous line plants of the HRP::ga1-5, the homozygous line plants of the ZmCPS::ga1-1, the homozygous line plants of the ZmCPS::ga1-5, the homozygous line plants of the PsSuper1300::ga1-1 and the homozygous line plants of the PsSuper1300::ga1-5 respectively, the other steps were unchanged, and untreated HRP::ga1-5, 30 mg/L DPC-treated HRP::ga1-5, 500 mg/L DPC-treated HRP::ga1-5, untreated ZmCPS::ga1-1, 30 mg/L DPC-treated ZmCPS::ga1-1, 500 mg/L DPC-treated ZmCPS::ga1-1, untreated ZmCPS::ga1-5, 30 mg/L DPC-treated ZmCPS::ga1-5, 500 mg/L DPC-treated ZmCPS::ga1-5, untreated PsSuper1300::ga1-1, 30 mg/L DPC-treated PsSuper1300::ga1-1, 500 mg/L DPC-treated PsSuper1300::ga1-1, untreated PsSuper1300::ga1-5, 30 mg/L DPC-treated PsSuper1300::ga1-5 and 500 mg/L DPC-treated PsSuper1300::ga1-5 were obtained, respectively.
(§5) The plant heights of the above Arabidopsis thaliana before the treatment (FIG. 1) and after different treatments (FIG. 2 and Table 2) were measured.

[2] = test system: HRP::ga1-5; experiment: Effect of DPC on plant height (step 4.1), HRP::ga1-5; type: in vivo, Arabidopsis thaliana; conditions: for Plant height / Plant height reduction rate: HRP::ga1-5; for Plant height: 12 days; for Plant height reduction rate: relative to 0 mg/L
Description: as §1, §2, §3, §4, §5

[3] = test system: transgenic zmcps-ko line with the HRP, line No. 623; experiment: Sensitivity of transgenic zmcps-ko line with the HRP to DPC, line No. 623; type: in vivo, maize; conditions: 500 ppm (5 mM) DPC spray
From the text: (§6) The GV3101-pSuper1300-HRP of Example 1 was transformed into the ZmCPSKO maize embryos of step 1.1 by using the Agrobacterium to infect the maize immature embryos, and positive transgenic maize with the HRP was obtained by screening, and the transgenic maize with the HRP contained the target gene HRP. The GV3101-pSuper1300-ZmCPS and GV3101-pSuper1300 were used as controls, and the ZmCPS control maize and empty vector control maize were obtained, respectively.
(§7) The WT and transgenic plants were sprayed with DPC during jointing stage to test their DPC sensitivity: the whole plant was sprayed with 500 ppm […] DPC when the maize was grown to 7 leaf expansion phase and 12 leaf expansion phase. Plant height and ear height were measured 2 weeks after treatment and after tasseling.

[4] = test system: ga1-5; experiment: Effect of DPC on plant height (step 4.1), mutant ga1-5; type: in vivo, Arabidopsis thaliana; conditions: for Plant height: 12 days; for Plant height reduction rate: relative to 0 mg/L
Description: as §1, §2
When the ga1-1 was cultured to the 33rd day of sowing (the day of sowing was recorded as the first day of sowing), 30 plants were taken and randomly divided into three groups, ten plants in each group and the plants of these three groups were treated as follows, respectively: one group was sprayed with 0 mg/L DPC solution and cultured for 12 days to obtain untreated ga1-1; one group was sprayed with 30 mg/L aqueous DPC solution and cultured for 12 days to obtain 30 mg/L DPC-treated ga1-1; the last group was sprayed with 500 mg/L DPC solution and cultured for 12 days to obtain 500 mg/L DPC-treated ga1-1.
According to the above method, the ga1-1 was replaced with the ga1-5, the other steps were unchanged, and untreated ga1-5, 30 mg/L DPC-treated ga1-5, and 500 mg/L DPC-treated ga1-5 were obtained, respectively.
as §5

[5] = test system: HRP::ga1-1; experiment: Effect of DPC on plant height of transgenic Arabidopsis thaliana (step 4.1), HRP::ga1-1; type: in vivo; conditions: for Plant height reduction rate / Plant height: HRP::ga1-1; for Plant height reduction rate: relative to 0 mg/L DPC-treated plant; for Plant height: cultured 12 days
Description: as §1, §2, §3, §5

[6] = test system: pSuper1300::ga1-1; experiment: Effect of DPC on plant height (step 4.1), empty vector pSuper1300::ga1-1; type: in vivo, Arabidopsis thaliana; conditions: for Plant height: 12 days; for Plant height reduction rate: relative to 0 mg/L
Description: as §1, §2, §3, §4, §5

[7] = test system: B73 (WT); experiment: Sensitivity of wild type maize B73 to DPC; type: in vivo; conditions: 500 ppm (5 mM) DPC spray
Description: as §7

[8] = test system: transgenic zmcps-ko line with the HRP, line No. 614; experiment: Sensitivity of transgenic zmcps-ko line with the HRP to DPC, line No. 614; type: in vivo, maize; conditions: 500 ppm (5 mM) DPC spray
From the text: as §6, §7

SMILES: C[N+]1(C)CCCCC1.[Cl-] [DPC, 1,1-dimethylpiperidinium chloride]
- Plant height ([1]; 30 mg/L DPC spray): 16.79 ± 0.13 cm
- Plant height reduction rate ([1]; 30 mg/L DPC): 0.06%
- Plant height ([1]; 500 mg/L DPC spray): 16.66 ± 0.31 cm
- Plant height reduction rate ([1]; 500 mg/L DPC): 0.83%
- Effect of DPC on plant height (in words) ([1]; 30 and 500 mg/L DPC): no effect
- Plant height of HRP::ga1-5 as multiple of correspondingly treated ZmCPS::ga1-5 ([2]; 30 mg/L DPC): 0.64 times
- Plant height of HRP::ga1-5 as multiple of correspondingly treated ga1-5 ([2]; 30 mg/L DPC): 1.65 times
- Plant height reduction rate of HRP::ga1-5 as multiple of that of ga1-5 ([2]; 30 mg/L DPC): 4.68 times
- Plant height of HRP::ga1-5 as multiple of correspondingly treated ZmCPS::ga1-5 ([2]; 500 mg/L DPC): 0.38 times
- Plant height of HRP::ga1-5 as multiple of correspondingly treated ga1-5 ([2]; 500 mg/L DPC): 1.00 times
- Plant height reduction rate of HRP::ga1-5 as multiple of that of ga1-5 ([2]; 500 mg/L DPC): 6.66 times
- Plant height ([2]; 30 mg/L DPC spray): 10.80 ± 0.43 cm
- Plant height reduction rate ([2]; 30 mg/L DPC): 31.99%
- Plant height ([2]; 500 mg/L DPC spray): 6.41 ± 0.18 cm
- Plant height reduction rate ([2]; 500 mg/L DPC): 59.63%
- Ear height [3]: 75.2
- Plant height at 2 weeks after treatment [3]: 133.5
- Plant height at tasseling stage [3]: 182.8
- Plant height ([4]; 30 mg/L DPC spray): 6.55 ± 0.10 cm
- Plant height reduction rate ([4]; 30 mg/L DPC): 6.83%
- Plant height ([4]; 500 mg/L DPC spray): 6.40 ± 0.12 cm
- Plant height reduction rate ([4]; 500 mg/L DPC): 8.96%
- Plant height of HRP::ga1-1 as multiple of correspondingly treated ZmCPS::ga1-1 ([5]; 30 mg/L DPC): 0.68 times
- Plant height of HRP::ga1-1 as multiple of correspondingly treated ga1-1 ([5]; 30 mg/L DPC): 2.71 times
- Plant height reduction rate of HRP::ga1-1 as multiple of that of ga1-1 ([5]; 30 mg/L DPC): 2.49 times
- Plant height of HRP::ga1-1 as multiple of correspondingly treated ZmCPS::ga1-1 ([5]; 500 mg/L DPC): 0.41 times
- Plant height of HRP::ga1-1 as multiple of correspondingly treated ga1-1 ([5]; 500 mg/L DPC): 1.71 times
- Plant height reduction rate of HRP::ga1-1 as multiple of that of ga1-1 ([5]; 500 mg/L DPC): 3.47 times
- Plant height reduction rate ([5]; 30 mg/L DPC): 33.92%
- Plant height reduction rate ([5]; 500 mg/L DPC): 60.18%
- Plant height ([5]; sprayed with 30 mg/L DPC on 33rd day of sowing): 11.2 ± 0.24 cm
- Plant height ([5]; sprayed with 500 mg/L DPC on 33rd day of sowing): 6.75 ± 0.38 cm
- Plant height ([6]; 30 mg/L DPC spray): 4.33 ± 0.27 cm
- Plant height reduction rate ([6]; 30 mg/L DPC): 4.84%
- Plant height ([6]; 500 mg/L DPC spray): 3.98 ± 0.17 cm
- Plant height reduction rate ([6]; 500 mg/L DPC): 12.53%
- Ear height ([7]; B73 wild type): 91.3
- Plant height at 2 weeks after treatment ([7]; B73 wild type): 151
- Plant height at tasseling stage ([7]; B73 wild type): 207.5
- Sensitivity of the plant to DPC (in words) ([7]; WT (B73)): insensitive
- Ear height [8]: 80.5
- Plant height at 2 weeks after treatment [8]: 133.2
- Plant height at tasseling stage [8]: 197.9
